Common to all, as to type: functional
In assay [1] the test system is SK-MEL-2. In words: Growth inhibition of human SK-MEL-2 cells assessed as cell growth at 0.1 uM incubated for 48 hrs by sulforhodamine B assay relative to control. The settings on record: SK-MEL-2, 48 h, read-out: Activity. On the technique in general: In SRB staining, fixed cells bind dye roughly in proportion to their protein.
Assay [2] deals with EKVX. In words: Growth inhibition of human EKVX cells assessed as cell growth at 0.1 uM incubated for 48 hrs by sulforhodamine B assay relative to control. The settings on record: read-out: Activity.
Assay [3] concerns M14. In words: Growth inhibition of human M14 cells assessed as cell growth at 10 uM incubated for 48 hrs by sulforhodamine B assay relative to control. Conditions: M14, 48 h, read-out: Activity.
For assay [4], the system named is NCI-H322M. In words: Growth inhibition of human NCI-H322M cells assessed as cell growth at 0.1 uM incubated for 48 hrs by sulforhodamine B assay relative to control. The settings on record: read-out: Activity.
The subject of assay [5] is HT-29. In words: Growth inhibition of human HT-29 cells assessed as cell growth at 1 uM incubated for 48 hrs by sulforhodamine B assay relative to control. The settings on record: HT-29, 48 h, read-out: Activity.
The test system of assay [6] is SNB-19. In words: Growth inhibition of human SNB19 cells assessed as cell growth at 100 uM incubated for 48 hrs by sulforhodamine B assay relative to control. Conditions: SNB-19, 48 h, read-out: Activity.
Assay [7] deals with RPMI-8226. As to the kind of experiment: Growth inhibition of human RPMI8226 cells assessed as cell growth at 10 uM incubated for 48 hrs by sulforhodamine B assay relative to control. Conditions: RPMI-8226, 48 h, read-out: Activity.
The test system of assay [8] is RPMI-8226. As to the kind of experiment: Growth inhibition of human RPMI8226 cells assessed as cell growth at 0.01 uM incubated for 48 hrs by sulforhodamine B assay relative to control. The settings on record: RPMI-8226, 48 h, read-out: Activity.
Assay [9] relates to HCT-116. As to the kind of experiment: Growth inhibition of human HCT116 cells assessed as cell growth at 0.1 uM incubated for 48 hrs by sulforhodamine B assay relative to control. The settings on record: HCT-116, 48 h, read-out: Activity.
The subject of assay [10] is A549. As to the kind of experiment: Growth inhibition of human A549/ATCC cells assessed as cell growth at 100 uM incubated for 48 hrs by sulforhodamine B assay relative to control. Conditions: A549, 48 h, read-out: Activity.
The subject of assay [11] is OVCAR-5. In words: Growth inhibition of human OVCAR5 cells assessed as cell growth at 10 uM incubated for 48 hrs by sulforhodamine B assay relative to control. Conditions: OVCAR-5, 48 h, read-out: Activity.
Assay [12] concerns OVCAR-4. As to the kind of experiment: Growth inhibition of human OVCAR4 cells assessed as cell growth at 0.01 uM incubated for 48 hrs by sulforhodamine B assay relative to control. The settings on record: OVCAR-4, 48 h, read-out: Activity.
Assay [13] relates to LOX IMVI. As to the kind of experiment: Growth inhibition of human LOXIMVI cells assessed as cell growth at 0.01 uM incubated for 48 hrs by sulforhodamine B assay relative to control. Conditions: read-out: Activity.
Assay [14] relates to BT-549. As to the kind of experiment: Growth inhibition of human BT549 cells assessed as cell growth at 0.01 uM incubated for 48 hrs by sulforhodamine B assay relative to control. The settings on record: BT-549, 48 h, read-out: Activity.
For assay [15], the system named is NCI-H226. As to the kind of experiment: Growth inhibition of human NCI-H226 cells assessed as cell growth at 0.003 uM incubated for 48 hrs by sulforhodamine B assay relative to control. The settings on record: NCI-H226, 48 h, read-out: Activity.
Assay [16] deals with SK-OV-3. In words: Growth inhibition of human SKOV3 cells assessed as cell growth at 3 uM incubated for 48 hrs by sulforhodamine B assay relative to control. The settings on record: SK-OV-3, 48 h, read-out: Activity.
Assay [17] relates to T47D. As to the kind of experiment: Growth inhibition of human T47D cells assessed as cell growth at 3 uM incubated for 48 hrs by sulforhodamine B assay relative to control. Conditions: read-out: Activity.
Assay [18] deals with K562. As to the kind of experiment: Growth inhibition of human K562 cells assessed as cell growth at 30 uM incubated for 48 hrs by sulforhodamine B assay relative to control. Conditions: K562, 48 h, read-out: Activity.
The subject of assay [19] is HCC 2998. In words: Growth inhibition of human HCC2998 cells assessed as cell growth at 3 uM incubated for 48 hrs by sulforhodamine B assay relative to control. Conditions: HCC 2998, 48 h, read-out: Activity.
The subject of assay [20] is UACC-62. As to the kind of experiment: Growth inhibition of human UACC62 cells assessed as cell growth at 0.3 uM incubated for 48 hrs by sulforhodamine B assay relative to control. The settings on record: UACC-62, 48 h, read-out: Activity.
The test system of assay [21] is HCT-116. As to the kind of experiment: Growth inhibition of human HCT116 cells assessed as cell growth at 0.03 uM incubated for 48 hrs by sulforhodamine B assay relative to control. The settings on record: HCT-116, 48 h, read-out: Activity.
Assay [22] has as its system RXF 393. In words: Growth inhibition of human RXF393 cells assessed as cell growth at 0.003 uM incubated for 48 hrs by sulforhodamine B assay relative to control. Conditions: RXF 393, 48 h, read-out: Activity.
For assay [23], the system named is NCI/ADR-RES. In words: Growth inhibition of human NCI/ADR-RES cells assessed as cell growth at 0.003 uM incubated for 48 hrs by sulforhodamine B assay relative to control. Conditions: read-out: Activity.
The test system of assay [24] is HL-60(TB). In words: Growth inhibition of human HL-60(TB) cells assessed as cell growth at 30 uM incubated for 48 hrs by sulforhodamine B assay relative to control. Conditions: HL-60, 48 h, read-out: Activity.
Assay [25] concerns OVCAR-8. In words: Growth inhibition of human OVCAR8 cells assessed as cell growth at 0.003 uM incubated for 48 hrs by sulforhodamine B assay relative to control. Conditions: OVCAR-8, 48 h, read-out: Activity.
The subject of assay [26] is IGROV-1. In words: Growth inhibition of human IGROV1 cells assessed as cell growth at 0.03 uM incubated for 48 hrs by sulforhodamine B assay relative to control. Conditions: IGROV-1, 48 h, read-out: Activity.
In assay [27] the test system is PC-3. As to the kind of experiment: Growth inhibition of human PC3 cells assessed as cell growth at 0.003 uM incubated for 48 hrs by sulforhodamine B assay relative to control. The settings on record: PC-3, 48 h, read-out: Activity.
Assay [28] relates to NCI-H23. In words: Growth inhibition of human NCI-H23 cells assessed as cell growth at 3 uM incubated for 48 hrs by sulforhodamine B assay relative to control. The settings on record: NCI-H23, 48 h, read-out: Activity.
Assay [29] concerns TK-10. In words: Growth inhibition of human TK10 cells assessed as cell growth at 0.3 uM incubated for 48 hrs by sulforhodamine B assay relative to control. The settings on record: TK-10, 48 h, read-out: Activity.
Assay [30] has as its system NCI-H226. In words: Growth inhibition of human NCI-H226 cells assessed as cell growth at 0.03 uM incubated for 48 hrs by sulforhodamine B assay relative to control. The settings on record: NCI-H226, 48 h, read-out: Activity.
Assay [31] relates to BT-549. In words: Growth inhibition of human BT549 cells assessed as cell growth at 0.003 uM incubated for 48 hrs by sulforhodamine B assay relative to control. Conditions: BT-549, 48 h, read-out: Activity.
Assay [32] has as its system HL-60(TB). In words: Growth inhibition of human HL-60(TB) cells assessed as cell growth at 0.03 uM incubated for 48 hrs by sulforhodamine B assay relative to control. Conditions: HL-60, 48 h, read-out: Activity.
Assay [33] deals with HL-60(TB). As to the kind of experiment: Growth inhibition of human HL-60(TB) cells assessed as cell growth at 0.3 uM incubated for 48 hrs by sulforhodamine B assay relative to control. The settings on record: HL-60, 48 h, read-out: Activity.
Assay [34] deals with OVCAR-4. In words: Growth inhibition of human OVCAR4 cells assessed as cell growth at 0.003 uM incubated for 48 hrs by sulforhodamine B assay relative to control. The settings on record: OVCAR-4, 48 h, read-out: Activity.

Drawing on ChEMBL document CHEMBL3994622, “Design and synthesis of new RAF kinase-inhibiting antiproliferative quinoline derivatives. Part 2: Diarylurea derivatives” (Eur J Med Chem, 2017), this text covers growth for 4 molecules.

SMILES strings stand for the structures.

Regarding `COc1cc2cc(Oc3ccc(NC(=O)Nc4cc(C(F)(F)F)cc(C(F)(F)F)c4)cc3)c(C)nc2cc1OC`, the growth at 0.1 µM was 94% in [1], 89% in assay [2], 90% in assay [4] and 106% in [9]. Besides, the growth at 10 µM was -59% in assay [3], -8% in assay [7] and -58% in assay [11]. In addition, in assay [5], the growth at 1 µM was determined as 75%. Moreover, the growth at 100 µM was -79% in [6] and -85% in assay [10]. The growth at 0.01 µM in assay [8] was found to be 98%; in assay [12], 85%; in assay [13], 97%; in [14] it was 91%.
With `Cc1nc2cc(O)c(O)cc2cc1Oc1ccc(NC(=O)Nc2ccc(Cl)c(Cl)c2)cc1`, the growth at 0.003 µM in [15] was 101%; in [22] it was 100%; in [23], 100%; in [25], 98%; in assay [27], 104%; in [31] it was 91%. The growth at 0.003 µM in [34] was 97%. Further, the growth at 3 µM in [16] worked out at 103%; in [17] it was 100%; in [19], 96%; in [28] it was 87%. Further, the growth at 30 µM in assay [18] was -3%; in [24], -20%. Besides, the growth at 0.3 µM in assay [20] was 100%; in [29], 98%; in assay [33], 106%. The growth at 0.03 µM in assay [21] is 89%; in assay [26], 104%; in assay [30], 103%; in [32], 106%.
In the case of `COc1cc2cc(Oc3ccc(NC(=O)Nc4ccc(Cl)c(Cl)c4)cc3)c(C)nc2cc1OC`, the growth at 0.1 µM in [1] was found to be 116%; in assay [2], 93%; in assay [4], 103%; in [9], 102%. In addition, the growth at 10 µM in assay [3] is 2%; in assay [7], -22%; in assay [11] it was 50%. In assay [5], the growth at 1 µM turned out to be 108%. The growth at 100 µM is -41% in [6] and -100% in [10]. Moreover, the growth at 0.01 µM stood at 100% in [8], 95% in assay [12], 95% in [13] and 78% in assay [14].
For `COc1cc2cc(Oc3ccc(NC(=O)Nc4ccc(Cl)c(C(F)(F)F)c4)cc3)c(C)nc2cc1OC`, the growth at 0.003 µM in assay [15] came to 96%; in assay [22], 106%; in assay [23], 104%; in [25] it was 94%; in assay [27], 95%; in [31] it was 98%. Moreover, in assay [34], the growth at 0.003 µM came to 93%. For the same molecule, the growth at 3 µM in [16] is 17%; in assay [17], 19%; in assay [19], 29%; in assay [28] it was 5%. Besides, the values for the growth at 30 µM in [18] and in assay [24] were -60% and -22%, respectively. The growth at 0.3 µM in assay [20] worked out at 81%; in [29] it was 100%; in [33] it was 111%. The growth at 0.03 µM in [21] was determined as 91%; in [26], 107%; in [30], 98%; in assay [32] it was 97%.
